Assay results reported in US6303630A, “Diarylsulfone non-nucleoside reverse transcriptase inhibitors of human immunodeficiency virus” (University of the Sciences in Philadelphia, priority 2000, dated 2001).

Experiments:
[1] = test system: HIV-1; assay: NCI in vitro anti-HIV drug screen: XTT-formazan assay, protection of T4 lymphocytes (CEM) from HIV-1 cytopathic effects; assay type: cell-based, human immunodeficiency virus (HIV-1); settings: for EC50 / inhibition at 200 µM / inhibition at 20 µM / inhibition at 2 µM / inhibition at 0.2 µM / inhibition at 63.2 µM / inhibition at 6.33 µM / inhibition at 0.634 µM / inhibition at 0.0635 µM: Human immunodeficiency virus 1, CCRF-CEM; for EC50: 144 h, HIV-1 infected CEM cells, 6 days, XTT, approximate values, read-out: EC50 (50% effective concentration against HIV cytopathic effects); for inhibition at 200 µM / activity at 200 µM: dose 2.00 × 10^-4 Molar; for inhibition at 200 µM / inhibition at 20 µM / inhibition at 2 µM / inhibition at 0.2 µM / inhibition at 63.2 µM / inhibition at 6.33 µM / inhibition at 0.634 µM / inhibition at 0.0635 µM: read-out: Percent of Protection; for inhibition at 20 µM / activity at 20 µM: dose 2.00 × 10^-5 Molar; for inhibition at 2 µM / activity at 2 µM: dose 2.00 × 10^-6 Molar; for inhibition at 0.2 µM / activity at 0.2 µM: dose 2.00 × 10^-7 Molar; for inhibition at 63.2 µM / activity at 63.2 µM: dose 6.32 × 10^-5 Molar; for inhibition at 6.33 µM / activity at 6.33 µM: dose 6.33 × 10^-6 Molar; for inhibition at 0.634 µM / activity at 0.634 µM: dose 6.34 × 10^-7 Molar; for inhibition at 0.0635 µM / activity at 0.0635 µM: dose 6.35 × 10^-8 Molar; for activity at 200 µM / activity at 20 µM / activity at 2 µM / activity at 0.2 µM / activity at 63.2 µM / activity at 6.33 µM / activity at 0.634 µM / activity at 0.0635 µM: Human immunodeficiency virus 1, Lymphocyte, read-out: Percent of Control, Infected; for TI50 (IC/EC), Therapeutic Index: IC50/EC50
Method in brief: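 CEM T4 lymphocytes with serial half-log10 compound dilutions were infected with HIV-1 and incubated 6 days at 37° in 5% CO2. Cell protection from cytolysis was quantified by XTT formazan absorbance, with microscopic confirmation, against uninfected drug-treated toxicity controls.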

[2] = test system: T4 lymphocytes (CEM cell line); assay: Cell growth / toxicity control in uninfected T4 lymphocytes (CEM), XTT-formazan; assay type: cell-based; settings: Homo sapiens, CCRF-CEM; for IC50: 144 h, uninfected CEM cells, 6 days, XTT, approximate values, read-out: IC50 (50% inhibitory concentration for cell growth); for activity at 200 µM: dose 2.00 × 10^-4 Molar; for activity at 200 µM / activity at 20 µM / activity at 2 µM / activity at 0.2 µM / activity at 63.2 µM / activity at 6.33 µM / activity at 0.634 µM / activity at 0.0635 µM: read-out: Percent of Control, Uninfected; for activity at 20 µM: dose 2.00 × 10^-5 Molar; for activity at 2 µM: dose 2.00 × 10^-6 Molar; for activity at 0.2 µM: dose 2.00 × 10^-7 Molar; for activity at 63.2 µM: dose 6.32 × 10^-5 Molar; for activity at 6.33 µM: dose 6.33 × 10^-6 Molar; for activity at 0.634 µM: dose 6.34 × 10^-7 Molar; for activity at 0.0635 µM: dose 6.35 × 10^-8 Molar
Method in brief: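 Uninfected CEM T4 lymphocytes received compound in half-log10 dilutions (1:200 final dilution of DMSO solution) as toxicity control alongside HIV-1-infected cultures. After 6 days at 37° in 5% CO2, viability was quantified by XTT formazan absorbance plus microscopy.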

CCNc1ccccc1S(=O)(=O)c1ccccc1[N+](=O)[O-] [Compound 81, 2-(2-NITROPHENYLSULFONYL)-N-ETHYLANILINE] showed an EC50 [1] of 2.32 µM, an inhibition at 200 µM [1] of 17.2% and an inhibition at 20 µM [1] of 53.6%. For the same compound, the inhibition at 2 µM [1] was 46.1%, the inhibition at 0.2 µM [1] was 1.5% and the inhibition at 63.2 µM [1] was -15%. It also gave an inhibition at 6.33 µM [1] of 81.4%, an inhibition at 0.634 µM [1] of 31.3% and an inhibition at 0.0635 µM [1] of 5.99%. It also gave an activity at 200 µM [1] of 43.7%, an activity at 20 µM [1] of 68.5% and an activity at 2 µM [1] of 63.3%. The activity at 0.2 µM [1] was 33%, the activity at 63.2 µM [1] was 21.8% and the activity at 6.33 µM [1] was 87.3%. The activity at 0.634 µM [1] was 53.3%, the activity at 0.0635 µM [1] was 36.1% and the “TI50 (IC/EC), Therapeutic Index” value [1] was 1.39 × 10^+1. For the same compound, the IC50 [2] was 32.2 µM, the activity at 200 µM [2] was 13.7% and the activity at 20 µM [2] was 68.6%. The activity at 2 µM [2] was 89%, the activity at 0.2 µM [2] was 70.7% and the activity at 63.2 µM [2] was 23.6%. For the same compound, the activity at 6.33 µM [2] was 83.1%, the activity at 0.634 µM [2] was 89.4% and the activity at 0.0635 µM [2] was 93.7%.

In the case of CNc1ccccc1S(=O)(=O)c1ccccc1Cl [Compound 82, 2-(2-CHLOROPHENYSULFONYL)-N-METHYLANILINE], the EC50 [1] is reported as 29.7 µM, the inhibition at 200 µM [1] is reported as 3.76% and the inhibition at 20 µM [1] is reported as 41.4%. It also gave an inhibition at 2 µM [1] of -5.07%, an inhibition at 0.2 µM [1] of -22.6% and an inhibition at 63.2 µM [1] of 68.1%. For the same compound, the inhibition at 6.33 µM [1] was 24.5%, the inhibition at 0.634 µM [1] was -8.87% and the inhibition at 0.0635 µM [1] was 23.7%. For the same compound, the activity at 200 µM [1] was 34.6%, the activity at 20 µM [1] was 60.1% and the activity at 2 µM [1] was 28.6%. For the same compound, the activity at 0.2 µM [1] was 16.6%, the activity at 63.2 µM [1] was 78.3% and the activity at 6.33 µM [1] was 48.6%. For the same compound, the activity at 0.634 µM [1] was 26%, the activity at 0.0635 µM [1] was 48.1% and the “TI50 (IC/EC), Therapeutic Index” value [1] was 4.93 × 10^0. For the same compound, the IC50 [2] was 146 µM, the activity at 200 µM [2] was 33.9% and the activity at 20 µM [2] was 78.2%. It also gave an activity at 2 µM [2] of 91.2%, an activity at 0.2 µM [2] of 60.8% and an activity at 63.2 µM [2] of 93.3%. The activity at 6.33 µM [2] was 84.2%, the activity at 0.634 µM [2] was 96.1% and the activity at 0.0635 µM [2] was 93.2%.

CNc1ccc(Cl)cc1S(=O)(=O)c1ccccc1[N+](=O)[O-] [Compound 72, 2-(2-nitrophenylsulfonyl)4-chloro-N-methylaniline] was tested, and the EC50 [1] was 0.075 µM, the inhibition at 200 µM [1] was 74% and the inhibition at 20 µM [1] was 84%. For the same compound, the inhibition at 2 µM [1] was 93.4%, the inhibition at 0.2 µM [1] was 76% and the inhibition at 63.2 µM [1] was 85.5%. The inhibition at 6.33 µM [1] was 93.3%, the inhibition at 0.634 µM [1] was 102% and the inhibition at 0.0635 µM [1] was 46.1%. For the same compound, the activity at 200 µM [1] was 74.5%, the activity at 20 µM [1] was 84.3% and the activity at 2 µM [1] was 93.6%. It also gave an activity at 0.2 µM [1] of 76.5%, an activity at 63.2 µM [1] of 85.8% and an activity at 6.33 µM [1] of 93.4%. For the same compound, the activity at 0.634 µM [1] was 102%, the activity at 0.0635 µM [1] was 47.1% and the “TI50 (IC/EC), Therapeutic Index” value [1] was > 2.67 × 10^+3. The IC50 [2] was > 200 µM, the activity at 200 µM [2] was 84% and the activity at 20 µM [2] was 93.6%. For the same compound, the activity at 2 µM [2] was 95.8%, the activity at 0.2 µM [2] was 102% and the activity at 63.2 µM [2] was 97%. For the same compound, the activity at 6.33 µM [2] was 101%, the activity at 0.634 µM [2] was 101% and the activity at 0.0635 µM [2] was 99%.
